Measurements from patent US9738655B2, “Tetrahydroisoquinolines containing substituted azoles as factor XIa inhibitors” (BRISTOL-MYERS SQUIBB COMPANY, priority 2013, dated 2017).
Where a name gives a salt, the structure may show the parent alone. Read-outs that look alike come from different tables or passages of the source.

Experiments:
[1] = target: purified human plasma kallikrein (Homo sapiens (Human), UniProt P03952); test: Plasma kallikrein enzyme inhibition assay (chromogenic substrate S-2302); format: biochemical
[2] = target: purified human Factor XIa (Homo sapiens (Human), UniProt P03951); test: Factor XIa enzyme inhibition assay (chromogenic substrate S-2366)
[3] = measured at 25° C. (no asterisk)
[4] = read-out: Factor XIa Ki, measured at 25° C.

Chain of purified human plasma kallikrein (P03952 391-638): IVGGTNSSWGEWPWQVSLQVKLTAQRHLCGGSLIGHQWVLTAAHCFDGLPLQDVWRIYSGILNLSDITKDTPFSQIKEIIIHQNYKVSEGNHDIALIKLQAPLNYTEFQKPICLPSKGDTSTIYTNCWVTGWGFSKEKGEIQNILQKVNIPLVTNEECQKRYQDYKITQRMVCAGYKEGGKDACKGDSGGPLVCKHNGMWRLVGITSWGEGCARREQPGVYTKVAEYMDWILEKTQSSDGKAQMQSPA
Chain of purified human plasma kallikrein (P03952 20-390 partner): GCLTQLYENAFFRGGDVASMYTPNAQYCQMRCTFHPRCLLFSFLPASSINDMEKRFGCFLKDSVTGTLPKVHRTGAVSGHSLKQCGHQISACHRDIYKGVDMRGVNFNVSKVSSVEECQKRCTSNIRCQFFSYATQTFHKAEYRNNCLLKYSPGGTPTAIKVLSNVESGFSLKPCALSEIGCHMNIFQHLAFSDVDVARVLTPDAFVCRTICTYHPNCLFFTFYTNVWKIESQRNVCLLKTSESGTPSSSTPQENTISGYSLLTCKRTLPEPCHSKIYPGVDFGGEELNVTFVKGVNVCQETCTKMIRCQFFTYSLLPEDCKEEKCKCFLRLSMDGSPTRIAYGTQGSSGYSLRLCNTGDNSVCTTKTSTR
Chain of purified human Factor XIa (P03951 388-625): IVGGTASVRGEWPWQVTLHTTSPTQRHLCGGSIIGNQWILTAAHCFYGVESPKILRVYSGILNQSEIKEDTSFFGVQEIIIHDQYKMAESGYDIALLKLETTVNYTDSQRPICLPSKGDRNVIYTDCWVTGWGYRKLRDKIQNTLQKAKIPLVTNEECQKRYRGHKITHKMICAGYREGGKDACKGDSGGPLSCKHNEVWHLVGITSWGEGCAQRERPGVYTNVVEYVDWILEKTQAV
Chain of purified human Factor XIa (P03951 19-387 partner): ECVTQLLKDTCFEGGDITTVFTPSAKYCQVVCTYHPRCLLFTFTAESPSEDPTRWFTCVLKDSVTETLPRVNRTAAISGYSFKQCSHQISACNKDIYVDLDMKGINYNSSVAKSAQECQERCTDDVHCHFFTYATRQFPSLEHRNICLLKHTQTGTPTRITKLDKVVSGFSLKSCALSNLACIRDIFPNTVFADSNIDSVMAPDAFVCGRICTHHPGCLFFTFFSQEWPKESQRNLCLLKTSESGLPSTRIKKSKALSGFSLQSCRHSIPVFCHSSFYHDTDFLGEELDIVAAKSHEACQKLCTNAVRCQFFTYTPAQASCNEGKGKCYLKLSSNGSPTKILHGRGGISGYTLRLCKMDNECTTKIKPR

Molecule	Ki [1, 3]	Ki [2, 4]	other results
COc1ncccc1-c1cccc2c1CCN(C(=O)c1cn(-c3cccc(Cl)c3F)nn1)C2C(=O)Nc1ccc(C(=O)O)cc1 (stereo not drawn) [Example 153, 4-(2-(1-(3-chloro-2-fluorophenyl)-1H-1,2,3-triazole-4-carbonyl)-5-(2-methoxypyridin-3-yl)-1,2,3,4-tetrahydroisoquinoline-1-carboxamido)benzoic acid, TFA salt]	62.2 nM	5.73 nM	
4-(2-(3-Amino-1-(3-chloro-2-fluorophenyl)-1H-pyrazole-4-carbonyl)-5-(4-(2-(dimethylamino)ethoxy)piperidin-1-yl)-1,2,3,4-tetrahydroisoquinoline-1-carboxamido)benzoic acid, 2 TFA salt [Example 319]	6.41 nM	< 5 nM	
COC1CCN(c2cccc3c2CCN(C(=O)C2CCN(c4cccc(Cl)c4F)C2)C3C(=O)Nc2ccc(C(=O)O)cc2)CC1 (stereo not drawn) [Example 308, 4-(2-(1-(3-Chloro-2-fluorophenyl)pyrrolidine-3-carbonyl)-5-(4-methoxypiperidin-1-yl)-1,2,3,4-tetrahydroisoquinoline-1-carboxamido)benzoic acid, TFA salt]			Ki ([1]; measured at 25° C. (no asterisk), TFA salt): 79.7 nM; Ki ([2]; read-out: Factor XIa Ki, measured at 25° C., TFA salt): 6.03 nM
O=C(O)c1ccc(NC(=O)[C@H]2c3cccc(N4CCN(CC(F)(F)F)CC4)c3CCN2C(=O)[C@H]2CC(c3cccc(Cl)c3F)=NO2)cc1 [Example 231, 4-((R)-2-((R)-3-(3-Chloro-2-fluorophenyl)-4,5-dihydroisoxazole-5-carbonyl)-5-(4-(2,2,2-trifluoroethyl)piperazin-1-yl)-1,2,3,4-tetrahydroisoquinoline-1-carboxamido)benzoic acid, 2 TFA salt]		136 nM	Ki ([1]; measured at 37° C. (*)): 1290 nM
4-(2-(5-amino-1-(3-chloro- 2-fluorophenyl)-1H- pyrazole-4-carbonyl)-5-(4- methylpiperazin-1- yl)-1,2,3,4- tetrahydroisoquinoline-1- carboxamido)benzoic acid, 2 TFA salt [Example 212]	2.89 nM	20.9 nM	
O=C(O)c1ccc(NC(=O)[C@H]2c3cccc(N4CCOCC4)c3CCN2C(=O)c2cnn(-c3cccc(Cl)c3F)c2)cc1 [Example 88, (R)-4-(2-(1-(3-Chloro-2-fluorophenyl)-1H-pyrazole-4-carbonyl)-5-morpholino-1,2,3,4-tetrahydroisoquinoline-1-carboxamido)benzoic acid, TFA salt]	2080 nM	391 nM	
COC1CCN(c2cccc3c2CCN(C(=O)c2cn(-c4cccc(Cl)c4F)nn2)C3C(=O)Nc2ccc3c(c2)CC(=O)N3)CC1 (stereo not drawn) [Example 190, 2-(1-(3-Chloro-2-fluorophenyl)-1H-1,2,3-triazole-4-carbonyl)-5-(4-methoxypiperidin-1-yl)-N-(2-oxoindolin-5-yl)-1,2,3,4-tetrahydroisoquinoline-1-carboxamide, TFA salt]	163 nM	98.1 nM	
CN1CCN(c2cccc3c2CCN(C(=O)c2cn(-c4cccc(Cl)c4F)nn2)[C@H]3C(=O)Nc2ccc(C(=O)O)cc2)C(=O)C1 [Example 79, (R)-4-(2-(1-(3-chloro-2-fluorophenyl)-1H-1,2,3-triazole-4-carbonyl)-5-(4-methyl-2-oxopiperazin-1-yl)-1,2,3,4-tetrahydroisoquinoline-1-carboxamido)benzoic acid, TFA salt]	719 nM	114 nM	
Cn1cc2ccc(-c3cccc4c3CCN(C(=O)c3cn(-c5cccc(Cl)c5F)nn3)C4C(=O)Nc3ccc(C(=O)O)cc3)cc2n1 (stereo not drawn) [Example 162, 4-(2-(1-(3-chloro-2-fluorophenyl)-1H-1,2,3-triazole-4-carbonyl)-5-(2-methyl-2H-indazol-6-yl)-1,2,3,4-tetrahydroisoquinoline-1-carboxamido)benzoic acid]	49.9 nM	< 5 nM	
COC1CCN(c2cccc3c2CCN(C(=O)c2cnn(-c4cccc(Cl)c4F)c2N)[C@H]3C(=O)Nc2ccc(C(=O)O)cc2)CC1 [Example 286, (R)-4-(2-(5-amino-1-(3-chloro-2-fluorophenyl)-1H-pyrazole-4-carbonyl)-5-(4-methoxypiperidin-1-yl)-1,2,3,4-tetrahydroisoquinoline-1-carboxamido)benzoic acid, TFA salt]	3290 nM	266 nM	
Cc1ncn(-c2cccc3c2CCN(C(=O)[C@H]2CC(c4cccc(Cl)c4F)=NO2)[C@@H]3C(=O)Nc2ccc(C(=O)O)cc2)n1 [Example 250, 4-((S)-2-((R)-3-(3-Chloro-2-fluorophenyl)-4,5-dihydroisoxazole-5-carbonyl)-5-(3-methyl-1H-1,2,4-triazol-1-yl)-1,2,3,4-tetrahydroisoquinoline-1-carboxamido)benzoic acid, TFA salt]		< 5 nM	Ki ([1]; measured at 37° C. (*)): 6.8 nM
O=C(O)c1ccc(NC(=O)[C@H]2c3cccc(-c4cncnc4)c3CCN2C(=O)c2cn(-c3cccc(Cl)c3F)nn2)cc1 [Example 13, (R)-4-(2-(1-(3-Chloro-2-fluorophenyl)-1H-1,2,3-triazole-4-carbonyl)-5-(pyrimidin-5-yl)-1,2,3,4-tetrahydroisoquinoline-1-carboxamido)benzoic acid]	427 nM	11.9 nM	
COC1CCN(c2cccc3c2CCN(C(=O)c2cn(-c4cccc(Cl)c4F)nn2)C3C(=O)Nc2ccc(-c3ncc[nH]3)cc2)CC1 (stereo not drawn) [Example 141, N-(4-(1H-Imidazol-2-yl)phenyl)-2-(1-(3-chloro-2-fluorophenyl)-1H-1,2,3-triazole-4-carbonyl)-5-(4-methoxypiperidin-1-yl)-1,2,3,4-tetrahydroisoquinoline-1-carboxamide, 2 TFA]		5.95 nM	Ki ([1]; measured at 37° C. (*)): 161 nM
Nc1ccc(-c2cccc3c2CCN(C(=O)c2cn(-c4cccc(Cl)c4F)nn2)C3C(=O)Nc2ccc(C(=O)O)cc2)cn1 (stereo not drawn) [Example 39, 4-(5-(6-aminopyridin-3-yl)-2-(1-(3-chloro-2-fluorophenyl)-1H-1,2,3-triazole-4-carbonyl)-1,2,3,4-tetrahydroisoquinoline-1-carboxamido)benzoic acid, bis-TFA salt]	2.63 nM	< 5 nM	
COC1CCN(c2cccc3c2CCN(C(=O)c2ccnc(-c4cccc(Cl)c4F)c2)C3C(=O)Nc2ccc(C(=O)O)cc2)CC1 (stereo not drawn) [Example 324, 4-(2-(2-(3-Chloro-2-fluorophenyl)isonicotinoyl)-5-(4-methoxypiperidin-1-yl)-1,2,3,4-tetrahydroisoquinoline-1-carboxamido)benzoic acid, 2 TFA salt]	958 nM	37.1 nM	

Second part, led by results:

Ki [1, 3]	Ki [2, 4]	Molecule	other results
12.5 nM	< 5 nM	CN1CCC2(CCN(c3cccc4c3CCN(C(=O)c3cnn(-c5cccc(Cl)c5F)c3)C4C(=O)Nc3ccc(C(=O)O)cc3)CC2)C1=O (stereo not drawn) [Example 107, 4-(2-(1-(3-Chloro-2-fluorophenyl)-1H-pyrazole-4-carbonyl)-5-(2-methyl-1-oxo-2,8-diazaspiro[4.5]decan-8-yl)-1,2,3,4-tetrahydroisoquinoline-1-carboxamido)benzoic acid, TFA salt]	
7.68 nM		O=C(O)c1ccc(NC(=O)C2c3cccc(-c4cn[nH]c4)c3CCN2C(=O)c2cn(-c3cccc(Cl)c3F)nn2)cc1 (stereo not drawn) [Example 41, 4-(2-(1-(3-chloro-2-fluorophenyl)-1H-1,2,3-triazole-4-carbonyl)-5-(1H-pyrazol-4-yl)-1,2,3,4-tetrahydroisoquinoline-1-carboxamido)benzoic acid]	Ki [2]: < 5 nM
42.8 nM		COC1CCN(c2cccc3c2CCN(C(=O)c2cnn(-c4cccc(Cl)c4F)c2)C3C(=O)Nc2ccc(C(=O)O)cc2)CC1 (racemic) [Example 252, 4-(2-(1-(3-chloro-2-fluorophenyl)-1H-pyrazole-4-carbonyl)-5-(4-methoxypiperidin-1-yl)-1,2,3,4-tetrahydroisoquinoline-1-carboxamido)benzoic acid, TFA salt]	Ki [2]: < 5 nM
2.71 nM	< 5 nM	CN(C)C(=O)C1CCN(c2cccc3c2CCN(C(=O)c2cn(-c4cccc(Cl)c4F)cn2)[C@@H]3C(=O)Nc2ccc(C(=O)O)cc2)CC1 (single isomer, unassigned) [Example 63, TFA salt]	
0.96 nM	< 5 nM	CN(C)C1CCN(c2cccc3c2CCN(C(=O)c2cn(-c4cccc(Cl)c4F)nn2)[C@@H]3C(=O)Nc2ccc(-c3cn[nH]c3)cc2)CC1 [Example 104, (S)-N-(4-(1H-Pyrazol-4-yl)phenyl)-2-(1-(3-chloro-2-fluorophenyl)-1H-1,2,3-triazole-4-carbonyl)-5-(4-(dimethylamino)piperidin-1-yl)-1,2,3,4-tetrahydroisoquinoline-1-carboxamide, bis-TFA salt]	
30.9 nM	40.1 nM	O=C(O)c1ccc(NC(=O)C2c3cccc(F)c3CCN2C(=O)c2cn(-c3cccc(Cl)c3F)nn2)cc1 (stereo not drawn) [Example 195, 4-(2-(1-(3-Chloro-2-fluorophenyl)-1H-1,2,3-triazole-4-carbonyl)-5-fluoro-1,2,3,4-tetrahydroisoquinoline-1-carboxamido)benzoic acid]	
0.46 nM		O=C(O)c1ccc(NC(=O)C2c3cccc(-c4cnc(O)nc4)c3CCN2C(=O)c2cn(-c3cccc(Cl)c3F)nn2)cc1 (stereo not drawn) [Example 34, 4-(2-(1-(3-chloro-2-fluorophenyl)-1H-1,2,3-triazole-4-carbonyl)-5-(2-hydroxypyrimidin-5-yl)-1,2,3,4-tetrahydroisoquinoline-1-carboxamido)benzoic acid]	Ki [2]: < 5 nM
0.64 nM	< 5 nM	CN1CCN(c2cccc3c2CCN(C(=O)C2CC(c4c(F)ccc(Cl)c4F)=NO2)C3C(=O)Nc2ccc(C(=O)O)cc2)CC1 (stereo not drawn) [Example 205, 4-(2-(3-(3-chloro-2,6-difluorophenyl)-4,5-dihydroisoxazole-5-carbonyl)-5-(4-methylpiperazin-1-yl)-1,2,3,4-tetrahydroisoquinoline-1-carboxamido)benzoic acid, 2 TFA salt]	
10.7 nM	41.7 nM	CN1CCN(c2cccc3c2CCN(C(=O)c2cnn(-c4cccc(Cl)c4)c2)C3C(=O)Nc2ccc(C(=O)O)cc2)CC1 (stereo not drawn) [Example 200, 4-(2-(1-(3-chlorophenyl)-1H-pyrazole-4-carbonyl)-5-(4-methylpiperazin-1-yl)-1,2,3,4-tetrahydroisoquinoline-1-carboxamido)benzoic acid, 2 TFA salt]	
